In patent US20150025077A1 (COYOTE PHARMACEUTICALS, INC., priority 2012, published 2015):

Columns and labels:
Rap1 = experiment: Prenylation of Rap1 in Neuro2A cells, western blotting; assay type: cell-based, mouse; conditions: 100 nM; with GGTI-298; percentage of control (GGTI only)
Description: Mouse neuroblastoma Neuro2A cells were cultured in DMEM supplemented with 10% FBS for 24 hrs. The cells were treated with 102GGA derivative compounds for 24 hrs first before GGTase inhibitor GGTI-298 was added to the culture medium for additional 24 hr incubation. […] Both un-prenylated and total Rap1 protein bands were quantified using Image J and normalized to their respective loading control GAPDH. The results for control and each compound treatment were calculated as the ratio of normalized un-prenylated Rap1 to total Rap1, and averaged from two biological repeats of one experiment. The final results were presented as a percentage of the control treatments (GGTI only) from the same batch experiment. The data shown in the chart were averaged from two repeats of one experiment and presented as the ratio of normalized un-prenylated Rap1 to total Rapt Compound ID numbers in table refer to structures in Table 1 and Table 2.

HSP70 = HSP70 levels in Neuro 2a cells, ELISA; assay type: cell-based, mouse; conditions: 48 hrs compound then 24 hrs GGTI-298
Description: Mouse neuroblastoma 2a cells were cultured in DMEM with 10% FBS for 24 hrs. […] After 24 hrs cells were harvested and lysates were prepared and analyzed by ELISA for HSP70. Compound ID numbers in table refer to structures in Table 1 and Table 2.

RhoA = experiment: Active RhoA to total RhoA in Neuro2A cells (G-LISA, ELISA); assay type: cell-based, mouse; conditions: 48 hrs treatment, ratio of active RhoA to total RhoA as percentage of DMSO treatments, concentration not given
Description: Mouse neuroblastoma Neuro2A cells were cultured in DMEM supplemented with 10% FBS for 24 hrs. […] Cell lysates were quantified and subjected either to active RhoA assay using G-LISA RhoA activation Assay Biochem Kit (Cytoskeleton Inc), or to total RhoA assay using Total RhoA ELISA Kit (Cytoskeleton Inc). The results were calculated as ratio of active RhoA to total RhoA and averaged from 3 biological repeats of one experiment with background subtraction. The data was presented as percentage of DMSO treatments.

Sprague Dawley rats = experiment: Kainic acid stereotactic hippocampus injection model, fraction of cells damaged; assay type: in vivo, rat; conditions: KA at 72 hours
Description: CNS-102 was administered orally to Sprague Dawley rats at 12 mg/kg. After dosing, KA was stereotactically injected into the hippocampus at 24, 48, 72, 96 and 168 hours to induce neuron damage. After 24 h, hippocampus tissue was collected, stained, and imaged. The scans were analyzed by Image J to calculate the fraction of cells having KA-induced damage. Average fraction damaged in the hippocampus from ten animals for each treatment (PBS vs. 12 mg/kg CNS-102) by time (24, 48, 72, 96 and 168 hours) combination was estimated with PROC MIXED in SAS. Comparisons of the CNS-102 treatment groups to the pooled PBS treatment at the different times can be made, giving the results tabulated below.
The fraction of cells damaged in the kainic acid model was determined on 130 rats, each receiving one dose of CNS-102 at either 0, 1, 3, 6, 12 or 24 mg/kg. PBS was used for dosing at 0 mg/kg. The linear model of the log10 percent damage versus concentration is graphically shown FIG. 5.
After dosing, KA was stereotactically injected into the hippocampus at 72 hours to induce neuron damage. After 24 h, hippocampus tissue was collected, stained, and imaged. The scans were analyzed by Image J to calculate the fraction of cells having KA-induced damage.
The indicated compounds or vehicle control were orally dosed to Sprague-Dawley rats, and Kainic acid was injected. After dosing, KA was stereotactically injected into the hippocampus at 72 hours to induce neuron damage. After 24 h, hippocampus tissue was collected, stained, and imaged. The scans were analyzed by Image J to calculate the fraction of cells having KA-induced damage. Neurons damaged by Kainic acid (mean of hippocampus CA3 neurons damaged) were quantified.

SMILES | unprenylated/total RAP1 (%) (Rap1) | HSP70 level, ELISA signal (absence of compounds normalized as 1.00) (HSP70; 10uM) | % Relative RhoGTPase Activity (RhoA) [%] | HSP70 level, ELISA signal (absence of compounds normalized as 1.00) (HSP70; 100 nM) | HSP70 level, ELISA signal (absence of compounds normalized as 1.00) (HSP70; 10 nM) | Mean of Hippocampus CA3 Neurons Damaged (Sprague Dawley rats; 3 mg/kg oral) [%] | Mean of Hippocampus CA3 Neurons Damaged (Sprague Dawley rats; 20 mg/kg oral) [%] | Mean of Hippocampus CA3 Neurons Damaged (Sprague Dawley rats; 2 mg/kg oral) [%]
CCOC(=O)C(C/C=C(\C)CC/C=C(\C)CC/C=C(\C)CC/C=C(\C)CCC=C(C)C)C(C)=O (stereo not drawn) [Compound 135] | 50 | 1.07 | 93.2 | – | – | – | – | –
CC(C)=CCC/C(C)=C/CC/C(C)=C/CC/C(C)=C/c1nnc(-c2ccc(C)cc2)o1 [Compound 29b, 2-((1E,5E,9E)-2,6,10,14-tetramethylpentadeca-1,5,9,13-tetraen-1-yl)-5-(p-tolyl)-1,3,4-oxadiazole] | 49 | 1.17 | 96.1 | 1.11 | – | – | – | –
CCOC(=O)CCNC(=O)OC/C=C(\C)CC/C=C(\C)CCC=C(C)C [Compound 8m, Carboethoxy-2′-ethyl 2E, 6E-farnesyl carbamate] | – | 1.05 | 111.4 | – | – | – | – | –
CC(C)=CCC/C(C)=C/CC/C(C)=C/CC/C(C)=C/CCC1(C)OCCO1 [Compound 105] | 64 | – | 85.1 | – | – | – | – | –
CC(C)=CCC/C(C)=C/CC/C(C)=C/CC/C(C)=C/COC(=O)Nc1ccc2ccccc2c1 [Compound 7s, 2′-Naphthyl 2E, 6E, 10E-geranylgeranyl carbamate] | 89 | 1.10 | 86.9 | – | – | – | – | –
CCC(C)NC(=O)OC/C=C(\C)CC/C=C(\C)CCC=C(C)C (stereo not drawn) [Compound 8g, Sec-Butyl 2E, 6E-farnesyl carbamate] | – | 1.51 | 111.3 | – | 1.17 | – | – | –
COC(=O)[C@@H](NC(=O)OC(C)CC/C=C(\C)CC/C=C(\C)CCC=C(C)C)C(C)C (stereo partly drawn) [Compound 20j, 5E,9E-farnesyl prop-2-yl Methyl 2-(S)-(−)-3-methylbutyrate Carbamate] | 59 | – | 85.9 | – | – | – | – | –
CC(C)=CCC/C(C)=C/CC/C(C)=C/CC/C(C)=C/COC(=O)Nc1ccc(C(F)(F)F)cc1 [Compound 7q, p-Trifluoromethylphenyl 2E, 6E, 10E-geranylgeranyl carbamate] | 48 | – | 83.5 | – | 1.01 | – | – | –
CCNC(=S)OC/C=C(\C)CC/C=C(\C)CC/C=C(\C)CCC=C(C)C [Compound 10b, Ethyl 2E,6E,10E-geranylgeranyl thiocarbamate] | – | 1.34 | 86.2 | 1.06 | – | – | – | –
CCOc1cc(OCC)cc(C(=O)OC/C=C(\C)CC/C=C(\C)CC/C=C(\C)CCC=C(C)C)c1 [Compound 2i, 2E, 6E, 10E-Geranylgeranyl-3′,5′-diethoxybenzoate] | 92 | – | 105.0 | 1.08 | – | – | – | –
CC(C)=CCC/C(C)=C/CC/C(C)=C/CC/C(C)=C/C1=N[C@H](C(C)C)C(=O)O1 [Compound 37a, (R)-4-isopropyl-2-((1E,5E,9E)-2,6,10,14-tetramethylpentadeca-1,5,9,13-tetraen-1-yl)oxazol-5(4H)-one] | – | 1.10 | 106.8 | 1.04 | – | – | – | –
CC(C)=CCC/C(C)=C/CC/C(C)=C/COC(=O)Nc1ccccc1 [Compound 8o, Phenyl 2E, 6E-farnesyl carbamate] | – | 0.99 | 82.1 | – | – | – | – | –
C=CCNC(=O)OC/C=C(\C)CC/C=C(\C)CCC=C(C)C [Compound 8j, Allyl 2E, 6E-farnesyl carbamate] | – | 1.31 | 105.6 | – | 1.13 | – | – | –
CCCCNC(=S)OC/C=C(\C)CC/C=C(\C)CC/C=C(\C)CCC=C(C)C [Compound 10e, O-((2E,6E,10E)-3,7,11,15-tetramethylhexadeca-2,6,10,14-tetraen-1-yl) butylcarbamothioate] | 56 | – | 89.7 | 1.09 | – | – | – | –
CCCCCNC(=O)OC/C=C(\C)CC/C=C(\C)CCC=C(C)C [Compound 8b, n-Pentyl 2E, 6E-farnesyl carbamate] | 55 | 1.38 | 125.0 | – | – | 20 | – | –
CNC(=S)OC/C=C(\C)CC/C=C(\C)CCC=C(C)C [Compound 43, O-((2E,6E)-3,7,11-trimethyldodeca-2,6,10-trien-1-yl) methylcarbamothioate] | – | 0.95 | 102.7 | – | – | – | – | –
CC(C)=CCC/C(C)=C/CC/C(C)=C/CC/C(C)=C/C1=N[C@@H](C)CO1 [Compound 27b, (S)-4-methyl-2-((1E,5E,9E)-2,6,10,14-tetramethylpentadeca-1,5,9,13-tetraen-1-yl)-4,5-dihydrooxazole] | – | 1.22 | 89.0 | 1.16 | – | – | – | –
CC(C)=CCC/C(C)=C/CC/C(C)=C/COC(=O)NC1CCCCC1 [Compound 8f, Cyclohexyl 2E, 6E-farnesyl carbamate] | – | 1.29 | 104.6 | – | – | – | – | –
COc1ccc(NC(=O)OC/C=C(\C)CC/C=C(\C)CC/C=C(\C)CCC=C(C)C)c(OC)c1 [Compound 7w, 2′,4′-Dimethoxyphenyl 2E, 6E, 10E-geranylgeranyl carbamate] | 77 | – | 94.4 | 1.14 | – | – | – | –
CC(C)=CCC/C(C)=C/CC/C(C)=C/CC/C(C)=C/COC(=O)Nc1cc(Cl)c(Cl)c(Cl)c1 [Compound 7y, 3′,4′,5′-Trichlorophenyl 2E, 6E, 10E-geranylgeranyl carbamate] | 68 | 1.13 | 94.4 | – | – | – | – | –
CC(C)=CCC/C(C)=C/CC/C(C)=C/CC/C(C)=C/COC(=S)NCCN1CCCCC1 [Compound 10l, Piperidinyl-2′-ethyl 2E,6E,10E-geranylgeranyl thiocarbamate] | 164 | 1.37 | – | 1.16 | – | – | 14 | –
CCOC(=O)CNC(=S)OC/C=C(\C)CC/C=C(\C)CC/C=C(\C)CCC=C(C)C [Compound 10d, Ethoxycarbonylmethyl 2E,6E,10E-geranylgeranyl thiocarbamate] | 62 | 1.36 | – | – | – | – | – | 14
